Test results from article PMC4431178, “Molecular basis of sugar recognition by collectin-K1 and the effects of mutations associated with 3MC syndrome” (BMC Biology, 2015).

What was measured:
CL-K1 [1] = target: T1, CL-K1 (Homo sapiens, UniProt Q9BWP8); assay: Glycan-array screen with fluorophore-labelled CL-K1; assay type: binding; design: For full-length protein, the cDNA was cloned into the polylinker region of expression vector pED; made in house; host or cells: Chinese hamster ovary cells; conditions: for relative fluorescence, With Ca^2+ / relative fluorescence, Without Ca^2+: glycan array, ± SE from six replicates; for relative fluorescence, With Ca^2+: CL-K1 200 μg/ml; for relative fluorescence, With Ca^2+ / glycan-array binding by CL-K1: with Ca2+; for relative fluorescence, Without Ca^2+: without Ca2+
Source text: To examine binding to individual glycans, fluorophore-labelled CL-K1 was used to probe a broad screen of mammalian carbohydrates using the Core H Glycan array technology facility at The Consortium for Functional Glycomics. […] The relative fluorescence signal provides an accurate indication of the order of affinities. Consistent with the glycoprotein data, the best ligands were all high-mannose oligosaccharides (Figure 2A and Additional file 1), but not all of these were recognised. Mammalian high-mannose structures comprise a Man5 core attached to the protein via two GlcNAc residues, with α1-2 linked sugars at the non-reducing termini (Figure 2C). CL-K1 only recognised those structures containing at least one terminal Man(α1-2)Man epitope. For example, it bound tightly to Man6, Man7, Man8 and Man9 but not to the Man5 core (ligand 310) that comprises only α1-3 and α1-6 linkages. […] This pattern of recognition is different from other collectins, such as MBL and pulmonary-surfactant protein D that typically recognise the terminal sugar alone (mannose, fucose or N-acetyglucosamine). It is also different from other C-type lectins, such as DC-SIGN or DC-SIGNR that target larger high-mannose oligosaccharides preferentially (Man5 to Man9). To quantify the differences in affinities, we compared binding to three different epitopes that all form part of a high-mannose oligosaccharide. […] Thus, CL-K1 primarily recognises the terminal disaccharide of the glycan, rather than the terminal sugar alone, explaining its unusual binding properties.
Labelled protein (70 μL) was applied to the printed surface of the microarray chip coated with natural and synthetic glycans via amino linkers. The chip was covered and incubated at room temperature in a humidified chamber for one hour. Binding was detected by measuring the fluorescence associated with each glycan. Data are the average of six replicates.
Target sequence in this assay (Q9BWP8 26-271): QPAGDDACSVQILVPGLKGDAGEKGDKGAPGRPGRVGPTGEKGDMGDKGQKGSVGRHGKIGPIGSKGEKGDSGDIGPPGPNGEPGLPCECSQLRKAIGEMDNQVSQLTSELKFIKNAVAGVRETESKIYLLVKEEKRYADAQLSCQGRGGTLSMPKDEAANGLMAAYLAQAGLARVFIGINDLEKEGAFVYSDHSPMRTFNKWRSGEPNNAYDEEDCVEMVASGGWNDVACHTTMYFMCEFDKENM

CL-K1 [2] = target: T1, CL-K1; assay: Immunoblot of CL-K1 binding to immobilised glycoproteins; design: For full-length protein, the cDNA was cloned into the polylinker region of expression vector pED; made in house; host or cells: Chinese hamster ovary cells; conditions: biotinylated CL-K1 0.06 mg/ml, glycoproteins spotted on nitrocellulose
Method: (§1) Figure 1 Glycoprotein binding and complement activation by CL-K1. A) Immunoblot of CL-K1 binding to immobilised mammalian and yeast glycoproteins. B) Surface plasmon resonance of CL-K1 binding to glycoproteins. […] C3b and its breakdown products were detected by absorbance using an anti-human C3c antibody with alkaline phosphatase-conjugated goat anti-rabbit secondary antibody and p-nitrophenyl phosphate as the substrate. Protein concentrations were calculated based on the molecular masses of CL-K1 and MBL trimers (78 kDa in each case). CL-K1, collectin-K1; MBL, mannan-binding lectin.
Two-fold serial dilutions of glycoprotein (0.5 μl at a starting concentration of 2 mg/ml) were spotted on to a nitrocellulose membrane and allowed to dry for 30 minutes at room temperature. […] After washing, the membrane was incubated with Streptavidin-ALP conjugate (2ug/ml; Life Technologies Ltd (Paisley, UK)) and developed with BCIP-NBT substrate (Sigma).
Target sequence in this assay (Q9BWP8 26-271): as above

complement component C3b = assay: Complement activation: C3b deposition on mannan in lectin-depleted human serum; assay type: biochemical; conditions: 1/100 human serum depleted of endogenous lectins
Method: as §1
After incubation at 37°C for one hour and washes with buffer containing 0.5% Tween-20, C3b was detected using rabbit anti-human C3c antibody (Dako UK Ltd (Ely, UK)) with alkaline phosphatase-conjugated goat anti-rabbit secondary antibody (Sigma) and p-nitrophenyl phosphate as the substrate.

[3] = test system: Chinese hamster ovary cells; assay: Secretion of wild type and variant CL-K1s from mammalian cells (immunoblot of medium); assay type: cell-based; conditions: transfected CHO cells, serum-free medium, anti-CL-K1 immunoblot
Source text: Figure 5 No secretion of variant CL-K1s containing mutations associated with 3MC syndrome. A) Structure of the CRD of CL-K1 showing the position of mutations associated with 3MC syndrome. Secondary structure features are labelled based on the structure of MBL [38]. Polar interactions are indicated by dotted lines. B) Secretion of wild type and variant CL-K1s from mammalian cells. […] Secreted CL-K1 was detected using rabbit polyclonal anti-CL-K1 antibodies. Purified wild-type CL-K1 (approximately 20 ng) was used as a positive control. CL-K1, collectin-K1; CRD, carbohydrate-recognition domain; MBL, mannan-bindng lectin; 3MC, Carnevale, Mingarelli, Malpuech and Michels.
For full-length protein, the cDNA was cloned into the polylinker region of expression vector pED [29] and protein was produced in Chinese hamster ovary cells and purified by affinity chromatography on mannose-Sepharose columns as described previously for MBL [28, 30]. […] Cells were grown in Power Prime broth (Molecular Dimensions Limited (Newmarket, UK)), induced during mid-log phase with IPTG (1 mM), and harvested after growth at 37°C for an additional 16 hours.

yeast invertase = assay: Binding of biotinylated invertase to full length CL-K1 and trimeric fragments; conditions: plates coated with CL-K1 protein
Source text: Figure 6 Characterisation of CL-K1 fragments containing disease-associated mutations. […] The elution positions of conalbumin (75 kDa), ovalbumin (44 kDa) and ribonuclease A (13.7 kDa) are indicated. […] Bottom, None of the three CL-K1 variants interacts with the column, even in the presence of Ca^2+. B) CD spectra of the wild-type CL-K1 fragment and the disease-associated CL-K1 variants. […] Values are the mean ± error from duplicate measurements. Tighter binding of the full-length protein is due to its increased avidity. CL-K1, collectin-K1; EDTA, ethylenediaminetetraacetic acid.
After washing, wells were incubated with 1:2000 dilution of goat peroxidase conjugated anti-biotin antibody (Sigma) and developed with tetramethylbenzidine (Sigma). Absorbance was measured at 450 nm.

CL-K1 [4] = target: T1, CL-K1; assay: Surface plasmon resonance of CL-K1 binding to glycoproteins; design: For full-length protein, the cDNA was cloned into the polylinker region of expression vector pED; made in house; host or cells: Chinese hamster ovary cells; conditions: glycoprotein starting concentration 200 nM
Method: as §1
Target sequence in this assay (Q9BWP8 26-271): as above
CL-K1 was immobilised on the surface of a GLM sensor chip (Bio-Rad Laboratories Ltd (Hemel Hempstead, UK)) by amine coupling. Binding was measured in 10 mM Tris–HCl, pH 7.4 containing 140 mM NaCl, 2 mM CaCl2 and 0.005% Tween 20 at a flow rate of 25 μl/minute and at 25°C. The protein surface was regenerated in buffer containing 1 M NaCl and 5 mM EDTA.

CL-K1 fragment = target: T2, CL-K1 fragment (Homo sapiens, UniProt Q9BWP8); assay: Ca2+ binding to the CL-K1 fragment measured by intrinsic fluorescence
T2 construct: made in house
T2 sequence (Q9BWP8 116-271): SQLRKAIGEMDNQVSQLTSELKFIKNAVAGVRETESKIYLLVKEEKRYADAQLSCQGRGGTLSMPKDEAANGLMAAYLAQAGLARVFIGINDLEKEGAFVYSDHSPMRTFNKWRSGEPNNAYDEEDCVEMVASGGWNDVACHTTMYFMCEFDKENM
Method: (§2) Figure 4 Ca^2+ stabilises the CRDs of CL-K1. A) Fluorescence spectra of the CL-K1 fragment in different buffers. The λex was 280 nm. B) Ca^2+ binding to the CL-K1 fragment measured by fluorescence. […] C) Urea denaturation in the presence and absence of Ca^2+ (2 mM). […] Samples were separated by SDS-PAGE and gels were scanned to determine the amount of CL-K1 remaining. The amount of trypsin was 0.5% (w/w). The intensities of bands corresponding to the neck and CRD and the CRD alone were combined. A sample gel is shown in F). E) Proteolysis of CL-K1 in the presence and absence of Ca^2+. Two fold serial dilutions of trypsin were used at a starting concentration of 2% (w/w). In all experiments data are mean ± error from two separate experiments. CL-K1, collectin-K1; CRD, carbohydrate-recognition domain.
All experiments were carried out using a Fluoromax-4 (Horiba Jobin Yvon, Horiba UK Ltd (Middlesex, UK)) instrument with excitation wavelength at 280 nm, slit widths of 2 nm and emission wavelength range of 300 to 400 nm. The λex was 280 nm. Protein samples (0.5 μM) in 10 mM Tris–HCl, pH 7.4 containing 140 mM NaCl were measured in the presence of 2 mM CaCl2, 1 mM EDTA and 6 M urea.

CL-K1 [5] = target: T1, CL-K1; assay: Proteolysis of CL-K1 by trypsin at increasing Ca2+ concentrations; assay type: binding; design: made in house; conditions: trypsin 0.5% (w/w), read-out: apparent KD for calcium
Method: as §2
Target sequence in this assay (Q9BWP8 116-271): as above

CL-K1 [6] = target: T1, CL-K1; assay: Inhibition of CL-K1 binding to immobilized yeast invertase by high-mannose epitopes; design: For full-length protein, the cDNA was cloned into the polylinker region of expression vector pED; made in house; host or cells: Chinese hamster ovary cells; conditions: relative to Man(α1-2)Man IC50 of 0.02 mM
Target sequence in this assay (Q9BWP8 26-271): as the sequence (Q9BWP8 26-271) above

relative fluorescence, With Ca^2+ (CL-K1 [1])	relative fluorescence, Without Ca^2+ (CL-K1 [1])	Compound	also measured
941 ± 308	4062 ± 774	OC[C@H]1O[C@@H](O)[C@H](O)[C@@H](O)[C@H]1O [compound 16]	
170 ± 91	535 ± 116	CC(=O)N[C@@H]1[C@@H](O)[C@H](O)[C@@H](CO)O[C@H]1O [compound 20]	
431 ± 27	1097 ± 138	CC1OC(O)C(O)C(O)C1O (stereo not shown) [compound 10]	
		fetuin: Bovine fetuin from Sigma-Aldrich	binding of CL-K1 on blot (CL-K1 [2]): not
		NCCCCCO[C@H]1O[C@H](CO[C@H]2O[C@H](CO[C@H]3O[C@H](CO)[C@@H](O)[C@H](O)[C@@H]3O[C@H]3O[C@H](CO)[C@@H](O)[C@H](O)[C@@H]3O)[C@@H](O)[C@H](O[C@H]3O[C@H](CO)[C@@H](O)[C@H](O)[C@@H]3O[C@H]3O[C@H](CO)[C@@H](O)[C@H](O)[C@@H]3O)[C@@H]2O)[C@@H](O)[C@H](O[C@H]2O[C@H](CO)[C@@H](O)[C@H](O)[C@@H]2O[C@H]2O[C@H](CO)[C@@H](O)[C@H](O)[C@@H]2O[C@H]2O[C@H](CO)[C@@H](O)[C@H](O)[C@@H]2O)[C@@H]1O [ligand 312, Manα1-2Manα1-2Manα1-3(Manα1-2Manα1-6(Manα1-2Manα1-3)Manα1-6)Manα-Sp9]	glycan-array binding by CL-K1 (CL-K1 [1]): bound tightly
		CL-K1: full-length recombinant human collectin-K1 produced in Chinese hamster ovary cells	complement activation, fold lower activity than human MBL (complement component C3b): 2.5 fold; secretion into medium [3]: secreted; binding to yeast invertase (yeast invertase): bound
		thyroglobulin: Bovine thyroglobulin from GE Healthcare	binding of CL-K1 on blot (CL-K1 [2]): binding
		Mannan	binding to CL-K1 by surface plasmon resonance (CL-K1 [4]): bound tightly; binding of CL-K1 on blot (CL-K1 [2]): binding
		[Ca+2] [Ca^2+]	Kd (CL-K1 fragment; read-out: KD for Ca2+ by titration): 430 µM; Hill coefficient of Ca2+ binding (CL-K1 fragment; trimeric neck+CRD fragment, intrinsic fluorescence): 2.4; Kd (CL-K1 [5]): ~1 mM
99 ± 9	570 ± 170	OC[C@H]1O[C@@H](O)[C@@H](O)[C@@H](O)[C@@H]1O [compound 18]	
499 ± 293	1798 ± 141	CC(=O)N[C@@H]1[C@@H](O)[C@H](O)[C@@H](CO)O[C@H]1O [compound 21]	
831 ± 505	4473 ± 1785	OC[C@H]1O[C@@H](O)[C@H](O)[C@@H](O)[C@@H]1O [compound 17]	
1000 ± 468	768 ± 303	OCC1OC(OCC2OC(OCC3OC(O)C(O)C(OC4OC(CO)C(O)C(O)C4O)C3O)C(O)C(OC3OC(CO)C(O)C(O)C3O)C2O)C(O)C(O)C1O (stereo not shown) [compound 310]	glycan-array binding by CL-K1 (CL-K1 [1]): not
294 ± 167	870 ± 157	OC[C@H]1O[C@H](O)[C@H](O)[C@@H](O)[C@H]1O [compound 6]	
250 ± 80	952 ± 297	OC[C@H]1O[C@H](O)[C@H](O)[C@@H](O)[C@@H]1O [compound 7]	
546 ± 98	1922 ± 358	CC1OC(O)C(O)C(O)C1O (stereo not shown) [compound 11]	
		OC[C@H]1OC(O)[C@@H](O)[C@@H](O)[C@@H]1O (stereo partly shown) [mannose]	fold by which inhibition by Man(α1-2)Man is greater than for this ligand (CL-K1 [6]): > 300 fold
		Invertase: yeast invertase glycoprotein from Sigma-Aldrich	binding to CL-K1 by surface plasmon resonance (CL-K1 [4]): bound tightly; binding of CL-K1 on blot (CL-K1 [2]): binding
566 ± 230	1156 ± 233	OC[C@H]1O[C@H](O)[C@@H](O)[C@@H](O)[C@@H]1O [compound 8]	
